PMC3566858 (Beilstein Journal of Organic Chemistry, 2013)
Marks after values point to notes of the source that are not given here.

Experiments:
[1] = target: cruzain (Trypanosoma cruzi, UniProt P25779); assay: biochemical; details: for IC50: kinact/Ki, read-out: cruzain activity (n.a. = not active)
[2] = target: TcCYP51 (Trypanosoma cruzi, UniProt Q7Z1V1); assay: biochemical; details: UV-vis binding assay; lower limit of KD ~5 nM; read-out: TcCYP51 activity in vitro KD
[3] = test system: TcCYP51 (ergosterol biosynthesis) in intracellular T. cruzi parasites; assay: Ergosterol biosynthesis / sterol composition of intracellular T. cruzi by GC/MS; type: cell-based, Trypanosoma cruzi; design: key to TcCYP51 cellular activity (Y/N): Y: Compound affects ergosterol biosynthesis at indicated concentration as determined by GC/MS analysis; cellular activity (Y/N, conc.); details: for effect on sterol (lipid) composition of intracellular T. cruzi: concentrations below MTC
[4] = test system: T. cruzi parasites in J774 macrophage host cells; assay: Minimum trypanocidal concentration (MTC) assay; type: cell-based, Trypanosoma cruzi
[5] = test system: T. cruzi parasites in C2C12 host cells; assay: High-content imaging-based screening (HCS) assay; type: cell-based; details: Trypanosoma cruzi; reduces parasite load in C2C12 cells by 90% relative to untreated controls; read-out: T. cruzi growth inhibition HCS EC90
[6] = target: T1, ≈35 kDa host-cell protein (cathepsin B) (Mus musculus, UniProt P10605); assay: Competitive labeling of host cell (C2C12) proteins with probe 9; type: cell-based; details: C2C12 cells
T1 construct: endogenous in cells; host or cells: C2C12 mouse myoblasts
Protocol: The discovery of a potential mammalian off-target of probe 9 (and presumably also of 1) was of considerable interest, so we explored this finding further. To determine if this protein was also a target of 1 and 4, we conducted competition experiments in C2C12 cells. […]
Cellular labeling assay and “click” chemistry: C2C12 cells (1.5 × 10^6 cells) were pre-treated with competitor compounds in culture media (1 mL, DMEM with 10% FBS) for 1 hour at 37 °C.
Then additional competitor compound and 9 (2 µM) were added in culture media (1 mL), and the cells were incubated for an additional hour. The cells were then pelleted, washed with phosphate-buffered saline pH 7.4 (2 × 1 mL), and lysed with 1% SDS in phosphate-buffered saline (400 µL). The denatured lysates were sonicated to reduce viscosity, centrifuged to give pellets of the insoluble material, and normalized for total protein content. The normalized lysates (22 µL, 3 mg/mL) were mixed with TAMRA azide 10 (0.5 µL, 5 mM), TCEP (0.5 µL, 50 mM, pH ~7.0), TBTA ligand in 1:4 DMSO/t-butyl alcohol (1.5 µL, 1 mM), and CuSO4 (0.5 µL, 50 mM).
Reactions were incubated at room temperature for one hour and then resolved by SDS-PAGE.
The resulting gel was scanned for fluorescence (Typhoon Imaging System, Molecular Dynamics) and coomassie stained. […]

[7] = target: T2, CYP1A2 (Homo sapiens, UniProt P05177); assay: Mammalian CYP inhibition panel, 1A2; type: in vitro ADME
T2 sequence (P05177 1-516): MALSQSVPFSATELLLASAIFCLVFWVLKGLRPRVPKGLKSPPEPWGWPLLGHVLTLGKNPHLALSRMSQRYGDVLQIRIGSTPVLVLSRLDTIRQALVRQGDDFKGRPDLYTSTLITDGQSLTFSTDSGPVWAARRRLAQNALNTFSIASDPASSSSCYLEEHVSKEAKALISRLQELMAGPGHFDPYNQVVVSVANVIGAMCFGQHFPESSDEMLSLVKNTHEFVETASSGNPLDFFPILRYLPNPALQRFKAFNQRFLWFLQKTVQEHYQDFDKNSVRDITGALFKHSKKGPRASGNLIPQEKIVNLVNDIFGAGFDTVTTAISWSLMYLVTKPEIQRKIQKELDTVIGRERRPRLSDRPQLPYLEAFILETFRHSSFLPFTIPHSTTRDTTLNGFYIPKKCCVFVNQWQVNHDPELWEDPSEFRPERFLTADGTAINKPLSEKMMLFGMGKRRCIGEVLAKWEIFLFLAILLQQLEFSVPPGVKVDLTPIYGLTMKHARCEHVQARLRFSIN

[8] = target: CYP2C9 (Homo sapiens, UniProt P11712); assay: Mammalian CYP inhibition panel, 2C9; type: in vitro ADME
[9] = target: T3, CYP2C19 (Homo sapiens, UniProt P33261); assay: Mammalian CYP inhibition panel, 2C19; type: in vitro ADME
[10] = target: CYP2D6 (Homo sapiens, UniProt P10635); assay: Mammalian CYP inhibition panel, 2D6; type: in vitro ADME
[11] = target: T4, CYP3A4 (Homo sapiens, UniProt P08684); assay: Mammalian CYP inhibition panel, 3A4; type: in vitro ADME
[12] = target: T3, CYP2C19; assay: CYP reversibility study (pre-incubation with or without NADPH), 2C19; type: in vitro ADME; details: for mechanism of CYP2C19 inhibition: NADPH-dependent shift of IC50
Protocol: (§1) CYP Inhibition and reversibility studies
(§2) Mammalian CYP inhibition values and reversibility studies were conducted by WuXi AppTech
(§3) (Tianjin, China 300457) according to standard protocols. […]

[13] = target: T4, CYP3A4; assay: CYP reversibility study (pre-incubation with or without NADPH), 3A4; type: in vitro ADME; details: for mechanism of CYP3A4 inhibition: NADPH-dependent shift of IC50
Protocol: Given the similar IC50 values for 1 and 4 against CYP3A4, we were curious to determine whether 4 is an irreversible inhibitor of this enzyme, as is the case for 1 [30].
as §1, §2, §3

[14] = target: T4, CYP3A4; design: method as in PMID 11038163; details: cited from earlier work
[15] = test system: P-glycoprotein (P-gp); details: stated as known, no reference given; cited from earlier work
[16] = test system: CYP1A2, CYP2C9, CYP2C19, CYP2D6, CYP3A4 (average over the panel of mammalian CYP enzymes); assay: Mammalian CYP inhibition panel, average over panel; type: in vitro ADME; details: human; average of 1A2, 2C9, 2C19, 2D6, 3A4; read-out: average IC50 across the CYP panel
[17] = affects ergosterol biosynthesis at 0.1 μM
[18] = clears J774 host cells of parasites at day 40, following 28 days of treatment
[19] = pre-incubation at either 1 μM or 10 μM for one hour
[20] = pretreatment with 10 μM for one hour
[21] = affects ergosterol biosynthesis at 2.0 μM

cruzain, sequence (P25779 123-337 limits assumed): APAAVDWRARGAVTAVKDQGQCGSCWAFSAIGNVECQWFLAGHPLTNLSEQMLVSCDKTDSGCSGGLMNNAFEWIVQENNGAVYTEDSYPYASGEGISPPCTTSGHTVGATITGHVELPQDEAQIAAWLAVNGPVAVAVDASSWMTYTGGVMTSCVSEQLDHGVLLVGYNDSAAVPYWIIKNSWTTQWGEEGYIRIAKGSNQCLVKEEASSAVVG
T3 sequence (P33261 whole entry): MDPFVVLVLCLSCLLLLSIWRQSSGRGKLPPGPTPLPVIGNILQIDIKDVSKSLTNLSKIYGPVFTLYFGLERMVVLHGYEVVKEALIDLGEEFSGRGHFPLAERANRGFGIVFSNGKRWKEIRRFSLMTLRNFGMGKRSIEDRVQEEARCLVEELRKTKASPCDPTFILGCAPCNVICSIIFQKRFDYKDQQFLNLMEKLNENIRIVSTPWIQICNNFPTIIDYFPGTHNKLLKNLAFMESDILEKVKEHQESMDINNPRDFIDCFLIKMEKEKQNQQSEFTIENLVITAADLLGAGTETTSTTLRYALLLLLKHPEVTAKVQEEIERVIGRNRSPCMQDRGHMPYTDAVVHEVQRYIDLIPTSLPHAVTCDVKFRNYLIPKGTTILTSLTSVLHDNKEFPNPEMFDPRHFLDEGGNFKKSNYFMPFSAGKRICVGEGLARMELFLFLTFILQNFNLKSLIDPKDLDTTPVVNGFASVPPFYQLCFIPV
T1 sequence (P10605 80-333 limits assumed): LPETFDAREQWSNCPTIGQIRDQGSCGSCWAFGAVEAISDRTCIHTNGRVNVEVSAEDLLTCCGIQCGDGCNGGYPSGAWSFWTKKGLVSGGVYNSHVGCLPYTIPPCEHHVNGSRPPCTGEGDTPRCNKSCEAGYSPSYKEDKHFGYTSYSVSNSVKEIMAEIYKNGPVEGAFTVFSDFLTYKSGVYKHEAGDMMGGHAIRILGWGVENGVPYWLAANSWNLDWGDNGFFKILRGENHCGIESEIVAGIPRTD
TcCYP51, sequence (Q7Z1V1 whole entry): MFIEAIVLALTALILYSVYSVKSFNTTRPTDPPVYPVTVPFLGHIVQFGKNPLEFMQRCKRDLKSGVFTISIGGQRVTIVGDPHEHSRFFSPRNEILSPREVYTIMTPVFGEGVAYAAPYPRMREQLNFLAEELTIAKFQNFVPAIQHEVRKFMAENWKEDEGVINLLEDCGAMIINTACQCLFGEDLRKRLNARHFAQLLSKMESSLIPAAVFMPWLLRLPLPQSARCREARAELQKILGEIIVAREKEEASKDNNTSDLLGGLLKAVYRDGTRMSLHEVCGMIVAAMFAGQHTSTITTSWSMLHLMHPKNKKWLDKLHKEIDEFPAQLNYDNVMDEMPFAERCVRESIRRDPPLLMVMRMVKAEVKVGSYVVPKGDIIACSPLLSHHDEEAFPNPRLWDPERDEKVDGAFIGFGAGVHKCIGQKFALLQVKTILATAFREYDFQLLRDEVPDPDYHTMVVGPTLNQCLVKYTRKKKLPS
T4 sequence (P08684 whole entry): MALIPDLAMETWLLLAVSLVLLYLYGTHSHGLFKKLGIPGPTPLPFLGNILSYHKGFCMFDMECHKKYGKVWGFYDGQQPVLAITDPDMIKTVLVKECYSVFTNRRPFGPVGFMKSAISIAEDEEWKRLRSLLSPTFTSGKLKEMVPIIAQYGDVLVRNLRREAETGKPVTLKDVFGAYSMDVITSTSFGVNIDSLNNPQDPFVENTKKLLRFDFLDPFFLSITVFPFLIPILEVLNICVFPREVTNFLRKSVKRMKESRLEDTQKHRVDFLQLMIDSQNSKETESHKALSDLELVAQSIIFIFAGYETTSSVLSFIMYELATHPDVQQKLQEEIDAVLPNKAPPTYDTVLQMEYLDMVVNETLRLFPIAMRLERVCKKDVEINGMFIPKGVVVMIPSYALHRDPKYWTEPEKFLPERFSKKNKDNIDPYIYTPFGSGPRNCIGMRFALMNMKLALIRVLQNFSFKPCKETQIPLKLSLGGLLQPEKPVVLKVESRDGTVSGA
CYP2D6, sequence (P10635 whole entry): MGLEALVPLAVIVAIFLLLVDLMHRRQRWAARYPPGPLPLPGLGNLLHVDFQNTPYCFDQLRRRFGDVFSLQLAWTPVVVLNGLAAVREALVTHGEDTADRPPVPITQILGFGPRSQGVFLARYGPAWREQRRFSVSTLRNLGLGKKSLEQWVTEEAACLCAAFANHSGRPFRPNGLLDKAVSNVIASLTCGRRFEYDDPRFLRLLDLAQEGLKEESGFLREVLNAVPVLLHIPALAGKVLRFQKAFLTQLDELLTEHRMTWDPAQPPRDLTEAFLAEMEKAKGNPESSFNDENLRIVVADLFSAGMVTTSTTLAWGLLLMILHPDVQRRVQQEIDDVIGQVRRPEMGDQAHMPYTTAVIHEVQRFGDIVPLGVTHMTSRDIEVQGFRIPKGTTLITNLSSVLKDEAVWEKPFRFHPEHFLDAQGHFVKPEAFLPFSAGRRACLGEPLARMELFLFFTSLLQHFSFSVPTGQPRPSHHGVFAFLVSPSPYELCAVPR
CYP2C9, sequence (P11712 whole entry): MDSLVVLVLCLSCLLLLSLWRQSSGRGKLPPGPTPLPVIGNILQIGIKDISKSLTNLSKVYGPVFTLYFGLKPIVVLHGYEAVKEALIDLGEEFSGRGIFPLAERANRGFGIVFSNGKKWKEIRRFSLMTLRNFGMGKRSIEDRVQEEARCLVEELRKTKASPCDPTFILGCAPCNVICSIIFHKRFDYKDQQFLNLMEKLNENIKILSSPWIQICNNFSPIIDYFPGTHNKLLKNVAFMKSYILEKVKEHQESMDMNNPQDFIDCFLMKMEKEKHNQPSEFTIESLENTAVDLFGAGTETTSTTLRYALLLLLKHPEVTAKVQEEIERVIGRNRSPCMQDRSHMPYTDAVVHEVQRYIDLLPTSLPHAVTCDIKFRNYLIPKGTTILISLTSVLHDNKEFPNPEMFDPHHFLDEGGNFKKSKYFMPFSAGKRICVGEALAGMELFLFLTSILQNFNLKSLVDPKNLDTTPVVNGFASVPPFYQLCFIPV

| SMILES | IC50 [1] [nM] | Kd [2] [nM] | effect on sterol (lipid) composition of intracellular T. cruzi [3] | T. cruzi growth inhibition MTC [4, 18] | EC90 [5] [nM] | kinact/KI [1] [M⁻¹ s⁻¹] | further results |
| --- | --- | --- | --- | --- | --- | --- | --- |
| Cc1ccc(C[C@H](NC(=O)c2ccncc2)C(=O)N[C@@H](CCc2ccccc2)CCS(=O)(=O)c2ccccc2)cc1 [Compound 8] | > 50000 | ≤ 5 | effects very similar to those observed in posaconazole treated parasites | 0.25 µM | 110 |  | TcCYP51 cellular activity (Y/N) [3, 17]: Y (0.1 μM); times more potent than 4 in the MTC assay ([4]; relative to compound 4): 2–4 times; competition for labeling of the ≈35 kDa band by probe 9 [6, 19]: did not compete for labeling by 9 |
| O=C(N[C@@H](Cc1ccccc1)C(=O)N[C@H](/C=C/S(=O)(=O)c1ccccc1)CCc1ccccc1)c1ccccn1 [Compound 2] |  |  |  | 10 µM |  | 120000 |  |
| O=C(Cn1ccnc1[N+](=O)[O-])NCc1ccccc1 [BNZ, benzindazole, reference compound] |  |  |  | 10 µM | 7200 |  |  |
| CN1CCN(C(=O)N[C@@H](Cc2ccccc2)C(=O)N[C@H](/C=C/S(=O)(=O)c2ccccc2)CCc2ccccc2)CC1 [Compound 1, reference compound] |  | > 2000 | little effect on sterol composition | 8 µM | 100 | 118000 | TcCYP51 cellular activity (Y/N) ([3]; affects ergosterol biosynthesis at 1.6 μM): N (1.6 μM); IC50 [7]: 24000 nM; IC50 [8]: 32000 nM; IC50 [9]: 7600 nM; IC50 [10]: 26000 nM; IC50 [11]: 1700 nM; mechanism of CYP2C19 inhibition [12]: reversible inhibitors; IC50 ([12]; pre-incubation with NADPH): 5540 nM; IC50 ([12]; pre-incubation without NADPH): 8220 nM; mechanism of CYP3A4 inhibition [13]: irreversible inhibition; IC50 ([13]; pre-incubation with NADPH): 5.9 nM; IC50 ([13]; pre-incubation without NADPH): 1080 nM; competition for labeling of the ≈35 kDa band by probe 9 [6, 20]: successfully blocked labeling; type of CYP3A4 inhibition [14]: mechanism-based (irreversible) inhibitor of CYP3A4; P-glycoprotein (P-gp) substrate [15]: substrate of the drug transporter P-glycoprotein (P-gp) |
| Cc1ccc(C[C@H](NC(=O)c2ccccn2)C(=O)N[C@@H](CCc2ccccc2)CCS(=O)(=O)c2ccccc2)cc1 [Compound 7] | > 50000 | > 2000 | no significant change in lipid composition | >10 µM | > 10000 |  | TcCYP51 cellular activity (Y/N) [3, 17]: N (0.1 μM) |
| Cc1ccc(C[C@H](NC(=O)c2ccccn2)C(=O)N[C@H](/C=C/S(=O)(=O)c2ccccc2)CCc2ccccc2)cc1.O=C(O)C(F)(F)F [Compound 3] |  | > 2000 | no significant change in lipid composition | 8 µM | 1850 | 16000 | TcCYP51 cellular activity (Y/N) [3, 21]: N (2.0 μM); competition for labeling of the ≈35 kDa band by probe 9 [6, 20]: successfully blocked labeling |
| CN1CCN(C(=O)N[C@@H](Cc2ccccc2)C(=O)N[C@@H](CCc2ccccc2)CCS(=O)(=O)c2ccccc2)CC1 [Compound 6] | > 50000 | > 2000 | no significant change in lipid composition | >10 µM | > 10000 |  | TcCYP51 cellular activity (Y/N) [3, 21]: N (2.0 μM); competition for labeling of the ≈35 kDa band by probe 9 [6, 19]: did not compete for labeling by 9 |
| CNC(=O)[C@H](Cc1ccc(C)cc1)NC(=O)c1ccncc1 [Compound 12] | > 50000 | 620 ± 260 |  | >10 µM | > 10000 |  | antitrypanosomal effect ([4]; highest concentration examined (10 μM)): no antitrypanosomal effect |
| Cc1ccc(C[C@H](NC(=O)c2ccncc2)C(=O)N[C@H](C)c2ccccc2)cc1 [Compound 13] | > 50000 | 75 ± 26 |  |  | 3900 |  | T. cruzi growth inhibition MTC ([4]; read at day 12 following 7 days treatment): 1^f μM |
| Cc1ccc(C[C@H](NC(=O)c2ccncc2)C(=O)N[C@H](/C=C/S(=O)(=O)c2ccccc2)CCc2ccccc2)cc1 [Compound 4, N-[(2S)-1-[[(E,3S)-1-(benzenesulfonyl)-5-phenylpent-1-en-3-yl]amino]-3-(4-methylphenyl)-1-oxopropan-2-yl]pyridine-4-carboxamide] |  | ≤ 5 | effects very similar to those observed in posaconazole treated parasites | 0.6 µM | 100 | 67300 | TcCYP51 cellular activity (Y/N) ([3]; affects ergosterol biosynthesis at 0.2 μM): Y (0.2 μM); fold more potent than 1 in the MTC assay ([4]; relative to compound 1): about 10 fold; IC50 [7]: 22000 nM; IC50 [8]: 5500 nM; IC50 [9]: 3400 nM; IC50 [10]: 2700 nM; IC50 [11]: 800 nM; mechanism of CYP2C19 inhibition [12]: reversible inhibitors; IC50 ([12]; pre-incubation with NADPH): 300 nM; IC50 ([12]; pre-incubation without NADPH): 170 nM; mechanism of CYP3A4 inhibition [13]: reversible inhibition; IC50 ([13]; pre-incubation with NADPH): 117 nM; IC50 ([13]; pre-incubation without NADPH): 46 nM; IC50 [16]: ~7000 nM; competition for labeling of the ≈35 kDa band by probe 9 [6, 20]: successfully blocked labeling |
| C#CCN1CCN(C(=O)N[C@@H](Cc2ccccc2)C(=O)N[C@H](/C=C/S(=O)(=O)c2ccccc2)CCc2ccccc2)CC1 [Compound 9] |  |  |  |  | 17 | 81500 | T. cruzi growth inhibition MTC ([4]; performed in BESM host cell rather than J774 cells): 5^e μM |
| CC1CCC(C(=O)N[C@H](Cc2c[nH]c3ccccc23)C(=O)Nc2ccncc2)CC1 (stereo partly drawn) [Compound 5, reference compound] |  |  |  | ≤10^d μM |  |  | TcCYP51 cellular activity (Y/N) ([3]; affects ergosterol biosynthesis at 5.0 μM): Y (5.0 μM) |
| CC[C@@H]([C@H](C)O)n1ncn(-c2ccc(N3CCN(c4ccc(OC[C@@H]5CO[C@@](Cn6cncn6)(c6ccc(F)cc6F)C5)cc4)CC3)cc2)c1=O [POSA, posaconazole, reference compound] |  |  | increase in the relative abundance of TcCYP51 substrates lanosterol (f) and eburicol (h) | 0.003 µM | 2700 |  | TcCYP51 cellular activity (Y/N) [3, 17]: Y (0.1 μM) |
